US20120083522A1, “MODULATION OF INFLAMMATORY RESPONSES BY FACTOR XI” (Isis Pharmaceuitcals, inc., priority 2009, published 2012)

Key:
human Factor XI mRNA [1] = experiment: Dose-dependent inhibition in HepG2 cells, lipofectin (Example 4); type: cell-based; conditions: 16 hours
Outline: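 HepG2 cells at 10,000 per well were lipofectin-transfected with 9.375, 18.75, 37.5 or 75 nM antisense oligonucleotide for about 16 h. Factor XI mRNA was quantified by real-time PCR (primer probe set RTS 2966) and normalised to RIBOGREEN total RNA. Values are percent inhibition versus untreated cells.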

human Factor XI mRNA [2] = experiment: Dose-dependent inhibition in HepG2 cells, electroporation (Example 4); type: cell-based; conditions: 16 hours
Outline: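 HepG2 cells electroporated with 0.7, 2.2, 6.7 or 20 μM antisense gapmer and harvested after ~16 h. Factor XI mRNA quantified by qRT-PCR (primer probe set RTS 2966), normalised to total RNA (RIBOGREEN). Reported as percent inhibition versus untreated control cells.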

human Factor XI mRNA [3] = experiment: Dose-dependent inhibition in HepG2 cells, electroporation (Example 5); type: cell-based; conditions: approx. 16 h, relative to untreated control cells
Protocol: The gapmers were also transfected via electroporation and their dose dependent inhibition of human Factor XI mRNA was measured. Cells were plated at a density of 20,000 cells per well and transfected via electroporation with 625 nM, 1250 nM, 2500 nM, 5,000 nM, 10,000 nM, and 20,000 nM concentrations of antisense oligonucleotide, as specified in Table 12. After a treatment period of approximately 16 hours, RNA was isolated from the cells and human Factor XI mRNA levels were measured by quantitative real-time PCR. Human Factor XI primer probe set RTS 2966 was used to measure mRNA levels. Factor XI mRNA levels were adjusted according to total RNA content, as measured by RIBOGREEN®. Results are presented as percent inhibition of human Factor XI, relative to untreated control cells.

human Factor XI mRNA [4] = experiment: Dose-dependent inhibition in cyno primary hepatocytes, electroporation (Example 6); type: cell-based, cynomolgus monkey; conditions: approx. 16 h
Protocol: Cells were plated at a density of 35,000 cells per well and transfected via electroporation with 0.74 nM, 2.2 nM, 6.7 nM, 20 nM, 60 nM, and 180 nM concentrations of antisense oligonucleotide, as specified in Table 13. After a treatment period of approximately 16 hours, RNA was isolated from the cells and human Factor XI mRNA levels were measured by quantitative real-time PCR. Human Factor XI primer probe set RTS 2966 was used to measure mRNA levels. Factor XI mRNA levels were adjusted according to total RNA content, as measured by RIBOGREEN®. Results are presented as percent inhibition of human Factor XI, relative to untreated control cells.

human Factor XI mRNA [5] = experiment: Dose-dependent inhibition in HepB3 cells, lipofectin (Example 7); type: cell-based; conditions: approx. 16 h
Protocol: Cells were plated at a density of 4,000 cells per well and transfected using lipofectin reagent with 2.3 nM, 4.7 nM, 9.4 nM, 18.75 nM, 37.5 nM, and 75 nM concentrations of antisense oligonucleotide, as specified in Table 14. After a treatment period of approximately 16 hours, RNA was isolated from the cells and human Factor XI mRNA levels were measured by quantitative real-time PCR. Human Factor XI primer probe set RTS 2966 was used to measure mRNA levels. Factor XI mRNA levels were adjusted according to total RNA content, as measured by RIBOGREEN®. Results are presented as percent inhibition of Factor XI, relative to untreated control cells.

human Factor XI mRNA [6] = experiment: Dose-dependent inhibition in HepB3 cells, electroporation (Example 7); type: cell-based; conditions: approx. 16 h
Protocol: The gapmers were also transfected via electroporation and their dose dependent inhibition of human Factor XI mRNA was measured. Cells were plated at a density of 20,000 cells per well and transfected via electroporation with 41.15 nM, 123.457 nM, 370.37 nM, 1111.11 nM, 3333.33 nM, and 10,000 nM concentrations of antisense oligonucleotide, as specified in Table 15. After a treatment period of approximately 16 hours, RNA was isolated from the cells and human Factor XI mRNA levels were measured by quantitative real-time PCR. Human Factor XI primer probe set RTS 2966 was used to measure mRNA levels. Factor XI mRNA levels were adjusted according to total RNA content, as measured by RIBOGREEN®. Results are presented as percent inhibition of human Factor XI, relative to untreated control cells.

[7] = Tolerability in Sprague-Dawley rats: body and organ weight (Example 19); type: in vivo; conditions: 50 mg/kg s.c. twice per week for 6 weeks, change over weight at start of study
Text: Urine samples were taken before the start of treatment.
The body weights are presented in Table 78 and are expressed as a percent change over the weights taken at the start of the study.

| Substance | percent inhibition of Factor XI mRNA, relative to untreated control cells (human Factor XI mRNA [1]; 9.375 nM) | percent inhibition of Factor XI mRNA, relative to untreated control cells (human Factor XI mRNA [1]; 18.75 nM) | percent inhibition of Factor XI mRNA, relative to untreated control cells (human Factor XI mRNA [1]; 37.5 nM) | percent inhibition of Factor XI mRNA, relative to untreated control cells (human Factor XI mRNA [1]; 75 nM) | percent inhibition of Factor XI mRNA, relative to untreated control cells (human Factor XI mRNA [2]; 0.7 μM) | percent inhibition of Factor XI mRNA, relative to untreated control cells (human Factor XI mRNA [2]; 2.2 μM) | percent inhibition of Factor XI mRNA, relative to untreated control cells (human Factor XI mRNA [2]; 6.7 μM) | percent inhibition of Factor XI mRNA, relative to untreated control cells (human Factor XI mRNA [2]; 20 μM) | percent inhibition of human Factor XI mRNA (human Factor XI mRNA [3]; 625 nM) | percent inhibition of human Factor XI mRNA (human Factor XI mRNA [3]; 1250 nM) | percent inhibition of human Factor XI mRNA (human Factor XI mRNA [3]; 2500 nM) | percent inhibition of human Factor XI mRNA (human Factor XI mRNA [3]; 5000 nM) | percent inhibition of human Factor XI mRNA (human Factor XI mRNA [3]; 10000 nM) | percent inhibition of human Factor XI mRNA (human Factor XI mRNA [3]; 20000 nM) | percent inhibition of human Factor XI mRNA (human Factor XI mRNA [4]; 0.74 nM) | percent inhibition of human Factor XI mRNA (human Factor XI mRNA [4]; 2.2 nM) | percent inhibition of human Factor XI mRNA (human Factor XI mRNA [4]; 6.7 nM) | percent inhibition of human Factor XI mRNA (human Factor XI mRNA [4]; 20 nM) | percent inhibition of human Factor XI mRNA (human Factor XI mRNA [4]; 60 nM) | percent inhibition of human Factor XI mRNA (human Factor XI mRNA [4]; 180 nM) | other results |
| --- | --- | --- | --- | --- | --- | --- | --- | --- | --- | --- | --- | --- | --- | --- | --- | --- | --- | --- | --- | --- | --- |
| 416858 (antisense ACGGCATTGGTGCACAGTTT; 5-10-5 gapmer, wing sugar chemistry not given here, further chemistry not given here) [compound 416858] | 0% | 28% | 54% | 82% | 5% | 20% | 56% | 86% | 65% | 77% | 87% | 89% | 93% | 93% | 2% | 13% | 22% | 44% | 63% | 68% | percent inhibition of human Factor XI mRNA (human Factor XI mRNA [5]; 2.3 nM): 17%; percent inhibition of human Factor XI mRNA (human Factor XI mRNA [5]; 4.7 nM): 34%; percent inhibition of human Factor XI mRNA (human Factor XI mRNA [5]; 9.4 nM): 43%; percent inhibition of human Factor XI mRNA (human Factor XI mRNA [5]; 18.75 nM): 57%; percent inhibition of human Factor XI mRNA (human Factor XI mRNA [5]; 37.5 nM): 74%; percent inhibition of human Factor XI mRNA (human Factor XI mRNA [5]; 75 nM): 62%; percent inhibition of human Factor XI mRNA (human Factor XI mRNA [6]; 41.15 nM): 23%; percent inhibition of human Factor XI mRNA (human Factor XI mRNA [6]; 123.457 nM): 45%; percent inhibition of human Factor XI mRNA (human Factor XI mRNA [6]; 370.37 nM): 52%; percent inhibition of human Factor XI mRNA (human Factor XI mRNA [6]; 1111.11 nM): 64%; percent inhibition of human Factor XI mRNA (human Factor XI mRNA [6]; 3333.33 nM): 87%; percent inhibition of human Factor XI mRNA (human Factor XI mRNA [6]; 10000 nM): 92%; Percent change in Body weight [7]: −21% |
| 416864 (antisense GGCAGCGGACGGCATTGGTG; 5-10-5 gapmer, wing sugar chemistry not given here, further chemistry not given here) [compound 416864] | 18% | 43% | 62% | 78% | 32% | 65% | 78% | 90% | 45% | 74% | 84% | 87% | 92% | 94% | 0% | 1% | 15% | 23% | 47% | 64% | percent inhibition of human Factor XI mRNA (human Factor XI mRNA [5]; 2.3 nM): 24%; percent inhibition of human Factor XI mRNA (human Factor XI mRNA [5]; 4.7 nM): 37%; percent inhibition of human Factor XI mRNA (human Factor XI mRNA [5]; 9.4 nM): 42%; percent inhibition of human Factor XI mRNA (human Factor XI mRNA [5]; 18.75 nM): 66%; percent inhibition of human Factor XI mRNA (human Factor XI mRNA [5]; 37.5 nM): 76%; percent inhibition of human Factor XI mRNA (human Factor XI mRNA [5]; 75 nM): 63%; percent inhibition of human Factor XI mRNA (human Factor XI mRNA [6]; 41.15 nM): 4%; percent inhibition of human Factor XI mRNA (human Factor XI mRNA [6]; 123.457 nM): 3%; percent inhibition of human Factor XI mRNA (human Factor XI mRNA [6]; 370.37 nM): 6%; percent inhibition of human Factor XI mRNA (human Factor XI mRNA [6]; 1111.11 nM): 35%; percent inhibition of human Factor XI mRNA (human Factor XI mRNA [6]; 3333.33 nM): 75%; percent inhibition of human Factor XI mRNA (human Factor XI mRNA [6]; 10000 nM): 87%; Percent change in Body weight [7]: −24% |
| 416925 (antisense GGTGCACAGTTTCTGGCAGG; 3-14-3 chimeric gapmer, wing sugar chemistry not given here, further chemistry not given here) [compound 416925] | 13% | 38% | 59% | 75% | 0% | 40% | 76% | 80% | 64% | 80% | 88% | 91% | 95% | 96% | 0% | 9% | 1% | 48% | 55% | 76% | percent inhibition of human Factor XI mRNA (human Factor XI mRNA [5]; 2.3 nM): 26%; percent inhibition of human Factor XI mRNA (human Factor XI mRNA [5]; 4.7 nM): 33%; percent inhibition of human Factor XI mRNA (human Factor XI mRNA [5]; 9.4 nM): 45%; percent inhibition of human Factor XI mRNA (human Factor XI mRNA [5]; 18.75 nM): 59%; percent inhibition of human Factor XI mRNA (human Factor XI mRNA [5]; 37.5 nM): 72%; percent inhibition of human Factor XI mRNA (human Factor XI mRNA [5]; 75 nM): 60%; percent inhibition of human Factor XI mRNA (human Factor XI mRNA [6]; 41.15 nM): 27%; percent inhibition of human Factor XI mRNA (human Factor XI mRNA [6]; 123.457 nM): 39%; percent inhibition of human Factor XI mRNA (human Factor XI mRNA [6]; 370.37 nM): 50%; percent inhibition of human Factor XI mRNA (human Factor XI mRNA [6]; 1111.11 nM): 73%; percent inhibition of human Factor XI mRNA (human Factor XI mRNA [6]; 3333.33 nM): 88%; percent inhibition of human Factor XI mRNA (human Factor XI mRNA [6]; 10000 nM): 96%; Percent change in Body weight [7]: −32% |
